Measurements published in ChEMBL document CHEMBL5465560, “Selectivity Literature for EUbOPEN Chemogenomic Library” (2024).

Key:
[1] = biological target: Tyrosine-protein kinase HCK (Homo sapiens) (UniProt P08631); conditions: at 10 µM
[2] = biological target: T1, Histone-lysine N-methyltransferase EHMT2 (Homo sapiens) (UniProt Q96KQ7); assay: Selectivity interaction (Methyltransferase screen (radiometric assays, panel of 8 PRMTs, 21 protein lysine methyltransferases, 3 DNA methyltransferases, and one RNA methyltransferase)) EUB0000272b EHMT2
T1 sequence (whole entry): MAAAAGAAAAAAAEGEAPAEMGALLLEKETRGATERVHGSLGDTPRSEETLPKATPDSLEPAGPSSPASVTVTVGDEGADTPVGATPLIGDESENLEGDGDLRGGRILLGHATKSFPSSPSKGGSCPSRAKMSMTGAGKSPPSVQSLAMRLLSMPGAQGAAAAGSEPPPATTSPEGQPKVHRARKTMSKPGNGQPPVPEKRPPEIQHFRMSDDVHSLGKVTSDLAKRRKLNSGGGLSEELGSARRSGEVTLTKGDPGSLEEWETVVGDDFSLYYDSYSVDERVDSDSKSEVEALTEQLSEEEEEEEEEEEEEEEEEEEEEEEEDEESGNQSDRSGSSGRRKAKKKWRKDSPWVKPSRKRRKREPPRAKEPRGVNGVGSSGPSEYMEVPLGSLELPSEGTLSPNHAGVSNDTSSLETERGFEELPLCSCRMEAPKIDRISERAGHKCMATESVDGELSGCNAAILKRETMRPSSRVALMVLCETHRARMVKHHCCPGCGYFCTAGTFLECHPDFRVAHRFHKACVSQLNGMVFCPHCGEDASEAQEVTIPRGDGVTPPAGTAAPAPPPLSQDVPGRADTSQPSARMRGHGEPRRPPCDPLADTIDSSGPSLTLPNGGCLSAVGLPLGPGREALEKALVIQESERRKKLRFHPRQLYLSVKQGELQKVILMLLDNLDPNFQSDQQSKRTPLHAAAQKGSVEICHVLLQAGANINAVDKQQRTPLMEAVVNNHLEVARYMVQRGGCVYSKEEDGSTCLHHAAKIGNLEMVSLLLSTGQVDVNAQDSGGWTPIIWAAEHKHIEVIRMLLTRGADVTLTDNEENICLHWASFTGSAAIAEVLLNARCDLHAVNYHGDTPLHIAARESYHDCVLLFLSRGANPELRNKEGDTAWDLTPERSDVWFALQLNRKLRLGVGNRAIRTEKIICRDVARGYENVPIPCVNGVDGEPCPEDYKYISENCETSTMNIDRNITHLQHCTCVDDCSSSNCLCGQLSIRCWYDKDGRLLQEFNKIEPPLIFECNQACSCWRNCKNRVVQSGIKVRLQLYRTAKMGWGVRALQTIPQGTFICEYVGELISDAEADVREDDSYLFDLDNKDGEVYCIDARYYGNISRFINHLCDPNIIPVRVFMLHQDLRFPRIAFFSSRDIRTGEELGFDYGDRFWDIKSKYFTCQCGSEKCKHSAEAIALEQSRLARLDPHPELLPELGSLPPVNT

[3] = biological target: Serine/threonine-protein kinase OSR1 (Homo sapiens) (UniProt O95747); assay: Selectivity interaction (KinomeScan (DiscoverX)) EUB0000229b OXSR1; conditions: at 10 µM
Sequence of Serine/threonine-protein kinase OSR1 (Homo sapiens) (O95747 2-527 limits assumed): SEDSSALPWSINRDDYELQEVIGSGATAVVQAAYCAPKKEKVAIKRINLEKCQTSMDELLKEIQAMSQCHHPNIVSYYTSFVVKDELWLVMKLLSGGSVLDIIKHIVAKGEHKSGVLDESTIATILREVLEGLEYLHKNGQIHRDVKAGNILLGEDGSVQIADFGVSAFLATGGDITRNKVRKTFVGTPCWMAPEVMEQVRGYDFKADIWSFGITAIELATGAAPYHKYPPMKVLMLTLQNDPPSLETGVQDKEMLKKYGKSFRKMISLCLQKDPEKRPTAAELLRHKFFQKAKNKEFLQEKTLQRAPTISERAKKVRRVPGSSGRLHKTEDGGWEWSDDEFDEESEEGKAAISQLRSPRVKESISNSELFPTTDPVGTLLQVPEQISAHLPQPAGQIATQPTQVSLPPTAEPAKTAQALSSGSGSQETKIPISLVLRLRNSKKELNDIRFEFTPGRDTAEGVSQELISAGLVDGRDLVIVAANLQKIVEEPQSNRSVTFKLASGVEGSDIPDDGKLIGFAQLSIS

[4] = biological target: T2, Rhodopsin kinase GRK1 (Homo sapiens) (UniProt Q15835); assay: Selectivity interaction (KinomeScan (DiscoverX)) EUB0001049a GRK1; conditions: at 1 µM
T2 sequence (whole entry): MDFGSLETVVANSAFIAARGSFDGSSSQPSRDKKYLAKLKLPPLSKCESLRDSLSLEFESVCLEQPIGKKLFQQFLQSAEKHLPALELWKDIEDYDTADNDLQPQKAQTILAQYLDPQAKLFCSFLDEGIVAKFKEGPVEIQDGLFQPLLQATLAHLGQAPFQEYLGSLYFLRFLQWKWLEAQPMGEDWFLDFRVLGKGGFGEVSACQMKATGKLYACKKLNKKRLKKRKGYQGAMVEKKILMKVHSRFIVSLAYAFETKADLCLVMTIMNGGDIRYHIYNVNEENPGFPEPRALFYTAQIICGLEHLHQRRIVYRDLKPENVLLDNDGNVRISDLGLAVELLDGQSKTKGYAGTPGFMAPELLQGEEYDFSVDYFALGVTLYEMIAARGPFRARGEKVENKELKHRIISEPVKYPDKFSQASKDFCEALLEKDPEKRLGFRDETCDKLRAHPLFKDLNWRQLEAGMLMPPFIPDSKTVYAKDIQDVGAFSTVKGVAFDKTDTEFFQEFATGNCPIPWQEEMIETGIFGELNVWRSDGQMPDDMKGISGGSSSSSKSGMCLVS

[5] = biological target: Serine/threonine-protein kinase N2 (Homo sapiens, UniProt Q16513); assay: Selectivity interaction (Ambit KINOMEscan and KiNATiv profiling in Jurkat cells) EUB0000090b PKN2; type: cell-based; conditions: at 1 µM
Sequence of Serine/threonine-protein kinase N2 (Q16513 whole entry, looked up): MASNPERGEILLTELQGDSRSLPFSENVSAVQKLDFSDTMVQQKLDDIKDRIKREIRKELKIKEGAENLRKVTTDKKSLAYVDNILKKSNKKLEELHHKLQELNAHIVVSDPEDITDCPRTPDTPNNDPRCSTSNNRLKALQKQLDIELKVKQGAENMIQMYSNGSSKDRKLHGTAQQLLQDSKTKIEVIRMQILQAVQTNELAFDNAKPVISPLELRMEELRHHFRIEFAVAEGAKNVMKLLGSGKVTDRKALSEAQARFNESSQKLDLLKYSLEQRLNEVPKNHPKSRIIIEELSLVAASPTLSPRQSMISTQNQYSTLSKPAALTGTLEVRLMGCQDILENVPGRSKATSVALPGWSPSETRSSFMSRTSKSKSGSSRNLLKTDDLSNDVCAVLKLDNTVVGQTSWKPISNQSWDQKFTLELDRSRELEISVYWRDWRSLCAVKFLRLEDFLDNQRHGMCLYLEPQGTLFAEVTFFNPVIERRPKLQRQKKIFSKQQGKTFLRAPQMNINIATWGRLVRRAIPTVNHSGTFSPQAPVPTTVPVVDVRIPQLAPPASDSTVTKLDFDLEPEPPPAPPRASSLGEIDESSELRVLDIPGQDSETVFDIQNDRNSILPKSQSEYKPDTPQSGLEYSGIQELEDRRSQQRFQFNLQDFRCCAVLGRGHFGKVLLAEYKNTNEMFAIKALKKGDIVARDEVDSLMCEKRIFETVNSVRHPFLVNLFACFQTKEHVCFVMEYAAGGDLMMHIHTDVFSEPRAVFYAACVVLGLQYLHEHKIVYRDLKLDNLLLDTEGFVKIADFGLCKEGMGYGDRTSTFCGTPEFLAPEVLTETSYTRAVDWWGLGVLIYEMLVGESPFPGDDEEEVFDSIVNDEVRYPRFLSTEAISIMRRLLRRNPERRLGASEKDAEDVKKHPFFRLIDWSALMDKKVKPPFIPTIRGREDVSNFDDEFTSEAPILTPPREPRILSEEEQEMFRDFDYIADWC

[6] = biological target: T3, PAN2-PAN3 deadenylation complex subunit PAN3 (Homo sapiens) (UniProt Q58A45); assay: Selectivity interaction (ActivX KiNativ screen (ex vivo kinase selectivity in human PBMCs)) EUB0001619a PAN3; type: cell-based; conditions: PBMC, at 1 µM
T3 sequence (whole entry): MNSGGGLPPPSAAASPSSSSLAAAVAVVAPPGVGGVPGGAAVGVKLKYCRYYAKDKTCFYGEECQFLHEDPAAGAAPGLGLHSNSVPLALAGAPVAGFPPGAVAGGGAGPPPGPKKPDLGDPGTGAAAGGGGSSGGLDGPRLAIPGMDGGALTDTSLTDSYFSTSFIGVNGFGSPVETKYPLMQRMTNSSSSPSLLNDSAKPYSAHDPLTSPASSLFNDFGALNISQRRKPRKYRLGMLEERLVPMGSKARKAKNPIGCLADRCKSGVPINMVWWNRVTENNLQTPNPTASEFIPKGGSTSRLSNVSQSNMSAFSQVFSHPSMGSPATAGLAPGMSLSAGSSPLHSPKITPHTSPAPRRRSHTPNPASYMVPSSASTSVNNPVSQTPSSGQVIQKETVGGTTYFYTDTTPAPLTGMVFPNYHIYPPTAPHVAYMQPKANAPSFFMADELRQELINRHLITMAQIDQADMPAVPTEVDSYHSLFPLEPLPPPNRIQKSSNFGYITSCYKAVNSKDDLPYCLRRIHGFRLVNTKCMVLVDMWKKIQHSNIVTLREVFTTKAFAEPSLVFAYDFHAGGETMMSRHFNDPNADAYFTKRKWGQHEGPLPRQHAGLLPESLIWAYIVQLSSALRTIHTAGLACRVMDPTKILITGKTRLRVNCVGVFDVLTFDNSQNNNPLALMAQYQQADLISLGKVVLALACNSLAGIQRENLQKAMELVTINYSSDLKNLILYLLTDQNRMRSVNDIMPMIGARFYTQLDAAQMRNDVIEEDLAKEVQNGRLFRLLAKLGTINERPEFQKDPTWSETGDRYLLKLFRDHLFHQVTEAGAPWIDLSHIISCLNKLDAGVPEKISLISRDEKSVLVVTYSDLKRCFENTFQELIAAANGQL

Sequence of Tyrosine-protein kinase HCK (Homo sapiens) (P08631 2-526 limits assumed): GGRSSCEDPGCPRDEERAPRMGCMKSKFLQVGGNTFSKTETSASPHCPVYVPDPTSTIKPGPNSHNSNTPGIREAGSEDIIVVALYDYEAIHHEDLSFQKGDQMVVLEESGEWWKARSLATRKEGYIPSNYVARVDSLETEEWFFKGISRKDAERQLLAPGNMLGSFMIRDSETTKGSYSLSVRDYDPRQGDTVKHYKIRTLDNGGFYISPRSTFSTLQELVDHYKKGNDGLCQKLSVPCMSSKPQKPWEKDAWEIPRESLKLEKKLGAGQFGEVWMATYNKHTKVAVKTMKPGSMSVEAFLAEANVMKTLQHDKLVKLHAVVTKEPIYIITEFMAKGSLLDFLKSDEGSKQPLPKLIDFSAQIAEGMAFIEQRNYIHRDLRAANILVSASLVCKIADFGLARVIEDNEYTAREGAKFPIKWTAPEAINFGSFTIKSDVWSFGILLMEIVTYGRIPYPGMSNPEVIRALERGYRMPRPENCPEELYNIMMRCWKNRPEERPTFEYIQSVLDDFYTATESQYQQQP

## CCN(CC)CCCCNc1ncc2cc(-c3cc(OC)cc(OC)c3)c(NC(=O)NC(C)(C)C)nc2n1
[1]
  % of control: 100%

## Cc1cc(C)cc([C@H]2c3cc(C)ccc3NC(=O)CN2C(=O)c2ccc(Br)s2)c1
[2]; at 1 µM
  % of activity: 95.7%
[2]; at 10 µM
  % of activity: 98.3%

## COc1cc(N(C)c2ccnc3ccc(C(F)(F)F)cc23)cc(OC)c1OC
[3]
  % binding: 79%

## COc1cc(Nc2nc(C)cc(-c3cnn4nc(OC)ccc34)n2)cc(C(F)(F)F)c1
[4]
  % of control: 75%

## CN(C)C/C=C/C(=O)Nc1ccc(C(=O)N2CCCC(Nc3ncc(Cl)c(-c4c[nH]c5ccccc45)n3)C2)cc1 (configuration not stated)
[5]
  % of control: 98%

## N#Cc1cccc(-c2c[nH]c3ncnc(N4CCOCC4)c23)c1
[6]
  % of inhibition: 15%
